Laboratory results as given in patent US10124004B2, “Pyrido[3,4-d]pyrimidine derivative and pharmaceutically acceptable salt thereof” (Teijin Pharma Limited, priority 2015, dated 2018).
Where two headings read alike, the source gives them in different places.

What was measured:
CDK2/cyclin A2 = molecular target: T1, CDK2/cyclin A2 (Homo sapiens, UniProt P24941); assay: Human CDK2/cyclin A2 inhibitory activity (QS S Assist CDK2/Cyclin A2_FP Kit, IMAP fluorescence polarization); format: biochemical
T1 construct: purchased Carna Biosciences, Inc. QS S Assist CDK2/Cyclin A2_FP Kit
Experimental: Human CDK2/Cyclin A^2 Inhibitory Activity
Each compound was analyzed for CDK2/cyclin A2 inhibitory activity with an assay kit (QS S Assist CDK2/Cyclin A2_FP Kit, available from Carna Biosciences, Inc.). This assay kit determines kinase activity on the basis of the IMAP technology by Molecular Devices. Specifically, the kinase activity is determined through quantification of a variation in fluorescent polarization caused by binding of a kinase-phosphorylated fluorescent substance to an IMAP-binding reagent.
An assay buffer was prepared by 10-fold dilution of the 10× assay buffer attached to the kit with distilled water, and each solution was prepared with the assay buffer. The assay buffer contained 20 mM HEPES (pH 7.4), 0.01% Tween 20, and 2 mM dithiothreitol. A test compound solution was prepared by dilution of the test compound with dimethyl sulfoxide (DMSO) to a concentration 100 times higher than the final concentration and then 25-fold dilution with the assay buffer to a concentration four times higher than the final concentration. An ATP/substrate/Metal solution was prepared by five-fold dilution of the 5×ATP/substrate/Metal solution attached to the kit with the assay buffer. An enzyme solution was prepared by dilution of the CDK2/cyclin A2 attached to the kit with the assay buffer to a concentration twice higher than the final concentration (final concentration of CDK2/cyclin A2: 2.5 ng/well). A detection reagent was prepared by five-fold dilution of 5×IMAP-binding buffer A with distilled water and 400-fold dilution of the IMAP-binding reagent with the diluted buffer.
The test compound solution (5 μL/well) and the ATP/substrate/Metal solution (5 μL/well) were added to a 384-well plate, and the enzyme solution or the assay buffer (10 μL/well) was added to the plate (total amount of the reaction mixture: 20 μL/well) for initiation of enzymatic reaction. […] The reaction was performed at room temperature for 60 minutes, and the detection reagent (60 μL/well) was then added to the plate, followed by further reaction for 30 minutes at room temperature under light shielding conditions. Subsequently, fluorescent polarization was determined with a microplate reader at an excitation wavelength of 485 nm and an emission wavelength of 535 nm.
The percent inhibition of enzyme activity was calculated for each test compound (note: enzyme activity=100% in the case of addition of the enzyme solution and addition of DMSO instead of the test compound solution, whereas enzyme activity=0% in the case of addition of the assay buffer instead of the enzyme solution and addition of DMSO instead of the test compound solution). The percent inhibition of enzyme activity was fitted to a dose-response curve, to determine a 50% inhibitory concentration against CDK2/cyclin A2.
In each table, “+++” corresponds to IC50<10 nM, “++” 10 nM≤IC50<100 nM, and “+” 100 nM≤IC50.

CDK4/cyclin D3 = molecular target: T2, CDK4/cyclin D3 (Homo sapiens, UniProt P11802); assay: Human CDK4/cyclin D3 inhibitory activity (QS S Assist CDK4/Cyclin D3_FP Kit, IMAP fluorescence polarization); format: biochemical
T2 construct: purchased Carna Biosciences, Inc. QS S Assist CDK4/Cyclin D3_FP Kit
Method in brief: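 Percent inhibition, relative to DMSO with and without enzyme, was curve-fitted to give IC50 from polarization (ex 485, em 535 nm). The 45-min room-temperature reaction used 12.5-25 ng/well enzyme, kit ATP/substrate/metal mix, and HEPES pH 7.4 buffer with Tween20 and DTT, followed by 30-min IMAP binding in the dark.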

[1] = 50% inhibitory concentration against CDK2/cyclin A2, given as class symbol
[2] = 50% inhibitory concentration against CDK4/cyclin D3, given as class symbol
[3] = Human CDK2/cyclin A2 inhibitory activity, read-out: CDK2 Activity symbol
[4] = Human CDK4/cyclin D3 inhibitory activity, read-out: CDK4 Activity symbol

T2 sequence (P11802 whole entry): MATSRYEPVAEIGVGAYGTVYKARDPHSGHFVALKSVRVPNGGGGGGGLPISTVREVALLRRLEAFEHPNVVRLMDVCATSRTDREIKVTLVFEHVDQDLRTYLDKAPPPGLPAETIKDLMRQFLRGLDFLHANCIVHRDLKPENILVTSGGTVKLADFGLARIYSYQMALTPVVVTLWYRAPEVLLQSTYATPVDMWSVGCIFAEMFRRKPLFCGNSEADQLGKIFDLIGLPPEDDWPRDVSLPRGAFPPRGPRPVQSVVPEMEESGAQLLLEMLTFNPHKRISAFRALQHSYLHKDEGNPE
T2 sequence (P30281 whole entry partner): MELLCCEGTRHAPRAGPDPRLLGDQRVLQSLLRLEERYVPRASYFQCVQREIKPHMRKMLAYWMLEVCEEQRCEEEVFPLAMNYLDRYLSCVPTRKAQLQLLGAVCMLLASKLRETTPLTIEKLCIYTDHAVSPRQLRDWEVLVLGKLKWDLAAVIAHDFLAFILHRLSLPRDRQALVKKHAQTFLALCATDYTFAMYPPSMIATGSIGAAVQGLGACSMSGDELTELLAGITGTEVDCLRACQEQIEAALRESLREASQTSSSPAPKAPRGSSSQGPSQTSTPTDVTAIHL

IC50 (CDK2/cyclin A2; [1])	IC50 (CDK4/cyclin D3; [2])	IC50 (CDK2/cyclin A2; [3])	IC50 (CDK4/cyclin D3; [4])	Compound
≥ 100 nM	< 10 nM			CO[C@H](C)c1cc2cnc(Nc3ccc(N4CCNCC4)nn3)nc2c(NC2CCCC2)n1 [Compound 712]
≥ 100 nM	< 10 nM			CNCCN1CCc2nc(Nc3ncc4cc([C@@H](C)O)nc(NC(C)C)c4n3)ccc2C1 [Compound 930]
≥ 100 nM	< 10 nM			c1cc2c(nc1Nc1ncc3cc(C4CCOC4)nc(N[C@H]4CCCOC4)c3n1)CCNC2 (single isomer, unassigned) [Compound 942]
		≥ 100 nM	< 10 nM	CNCCOc1ccc(Nc2ncc3cc([C@@H](C)OC)nc(NC(C)C)c3n2)nc1 [Compound 288]
≥ 100 nM	< 10 nM			CCCNc1nc([C@@H](C)O)cc2cnc(Nc3ccc(CN4CCN(CCO)CC4)c(C)n3)nc12 [Compound 1047]
		≥ 100 nM	< 10 nM	C[C@@H](O)c1cc2cnc(Nc3ccc(N4CCNCC4=O)cn3)nc2c(N[C@H]2CC[C@@H](C)CC2)n1 [Compound 624]
≥ 100 nM	< 10 nM			CC(C)Nc1nc([C@@H](C)O)cc2cnc(Nc3ccc4c(n3)CCN(S(C)(=O)=O)C4)nc12 [Compound 934]
		≥ 100 nM	10 to 100 nM	CO[C@H](C)c1cc2cnc(Nc3ccc(CN4CCn5ccnc5C4)cn3)nc2c(NC(C)C)n1 [Compound 275]
		≥ 100 nM	< 10 nM	C[C@@H](O)c1cc2cnc(Nc3ccc(CN4CCNCC4)cn3)nc2c(NC2CCOCC2)n1 [Compound 255]
		≥ 100 nM	< 10 nM	CC(=O)N1CCC(c2ccc(Nc3ncc4cc(C(F)F)nc(NC(C)C)c4n3)nc2)CC1 [Compound 178]
≥ 100 nM	< 10 nM			CC(C)Nc1nc([C@@H](C)O)cc2cnc(Nc3ccc(C4CCN(C(C)(C)C(=O)O)CC4)nn3)nc12 [Compound 790]
≥ 100 nM	< 10 nM			C[C@@H](O)c1nc(N[C@H]2CCCOC2)c2nc(Nc3ccc(N4CCNCC4=O)cn3)ncc2c1Cl [Compound 751]
≥ 100 nM	< 10 nM			CC(C)Nc1nc(C(C)O)cc2cnc(Nc3ccc(N4CCNCC4C(F)(F)F)cn3)nc12 (single isomer, unassigned) [Compound 776]
≥ 100 nM	< 10 nM			CC(C)Nc1nc([C@@H](C)O)cc2cnc(Nc3ccc(CN4CCN(C5COC5)CC4)cn3)nc12 [Compound 683]
		≥ 100 nM	< 10 nM	COCC(C)(C)Nc1nc([C@@H](C)O)cc2cnc(Nc3ccc(C(C)N4CCNCC4)cn3)nc12 (some centres unmarked) [Compound 265]
≥ 100 nM	< 10 nM			CC(C)Nc1nc(C2CCOC2)cc2cnc(Nc3ccc4c(n3)CCN(C(=O)CO)C4)nc12 (centres unmarked) [Compound 1231]
		≥ 100 nM	10 to 100 nM	CC(C)Nc1nc(C(F)F)cc2cnc(Nc3ccc(NC(=O)C(N)=O)cn3)nc12 [Compound 97]
≥ 100 nM	10 to 100 nM			CC(C)Nc1nc([C@@H](C)O)cc2cnc(Nc3ccc(N4CCC(C(=O)O)CC4)cn3)nc12 [Compound 836]
≥ 100 nM	< 10 nM			C[C@@H](O)c1cc2cnc(Nc3ccc(O[C@@H]4CCNC4)cn3)nc2c(N[C@H]2CCCOC2)n1 [Compound 805]
≥ 100 nM	< 10 nM			CC(C)Nc1nc([C@@H](C)O)cc2cnc(Nc3ccc(N4CCN(C(C)C#N)CC4)nn3)nc12 (some centres unmarked) [Compound 902]
≥ 100 nM	10 to 100 nM			CCCNc1nc([C@@H](C)O)cc2cnc(Nc3ccc(-c4cncn4C)cn3)nc12 [Compound 959]
≥ 100 nM	< 10 nM			CC(C)Nc1nc([C@@H](C)O)cc2cnc(Nc3ccc(CN4CCN(C(C)C)CC4)cn3)nc12 [Compound 633]
		≥ 100 nM	< 10 nM	CC(CO)Nc1nc(C(C)O)cc2cnc(Nc3ccc(N4CCNCC4)cn3)nc12 (centres unmarked) [Compound 41]
≥ 100 nM	< 10 nM			CC(C)Nc1nc([C@@H](C)O)cc2cnc(Nc3ccc(N4CCCC(N(C)C)C4)nn3)nc12 (some centres unmarked) [Compound 1220]
		≥ 100 nM	< 10 nM	CO[C@H](C)c1cc2cnc(Nc3ccc(N4CCNCC4)nn3)nc2c(NC2CCOCC2)n1 [Compound 285]
